The values that follow come from patent US10287266B2, “Compounds and compositions for inhibiting the activity of SHP2” (NOVARTIS AG, priority 2015, dated 2019).

The target in this test is T1, SHP2 (Homo sapiens, UniProt Q06124).
T1 sequence (Q06124 1-593): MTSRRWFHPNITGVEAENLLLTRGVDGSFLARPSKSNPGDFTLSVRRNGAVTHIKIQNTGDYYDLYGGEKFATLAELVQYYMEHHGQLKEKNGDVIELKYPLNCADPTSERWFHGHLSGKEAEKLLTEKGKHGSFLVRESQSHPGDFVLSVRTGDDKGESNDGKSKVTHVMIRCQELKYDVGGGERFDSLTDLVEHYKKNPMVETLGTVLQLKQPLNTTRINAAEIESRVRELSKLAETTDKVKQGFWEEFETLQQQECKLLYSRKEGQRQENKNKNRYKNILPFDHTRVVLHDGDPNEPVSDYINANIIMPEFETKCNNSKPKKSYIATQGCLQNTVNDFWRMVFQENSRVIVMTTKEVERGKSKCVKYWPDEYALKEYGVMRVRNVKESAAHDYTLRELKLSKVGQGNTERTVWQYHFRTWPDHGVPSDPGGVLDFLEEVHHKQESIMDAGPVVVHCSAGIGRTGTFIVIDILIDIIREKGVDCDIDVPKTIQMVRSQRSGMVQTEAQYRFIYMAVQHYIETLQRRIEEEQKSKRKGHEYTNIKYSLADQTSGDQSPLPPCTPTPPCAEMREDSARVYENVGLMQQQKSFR
As to the kind of experiment: SHP2 Allosteric Inhibition Assay. The class given is biochemical. The settings on record: 0.5 nM SHP2 activated with 0.5 μM peptide IRS1_pY1172(dPEG8)pY1222; surrogate substrate DiFMUP, prompt fluorescence, 25° C. The source says: SHP2 Allosteric Inhibition Assay
SHP2 is allosterically activated through binding of bis-tyrosyl-phorphorylated peptides to its Src Homology 2 (SH2) domains. The latter activation step leads to the release of the auto-inhibitory interface of SHP2, which in turn renders the SHP2 protein tyrosine phosphatase (PTP) active and available for substrate recognition and reaction catalysis. The catalytic activity of SHP2 was monitored using the surrogate substrate DiFMUP in a prompt fluorescence assay format.
After 30-60 minutes incubation at 25° C., the surrogate substrate DiFMUP (Invitrogen, cat# D6567) was added to the reaction and incubated at 25° C. for 30 minutes. […] The inhibitor dose response curves were analyzed using normalized IC50 regression curve fitting with control based normalization.
As usually defined, the AC50 is the midpoint of the concentration-response curve, whichever way the signal moves. A low value points to greater potency. `N[C@@H]1COCC12CCN(c1cnc(Sc3ccnc(Cl)c3Cl)cn1)CC2` [Example 19] gave an AC50 of 8.5 nM.

Take `N[C@@H]1CCCC12CCN(c1cnc(Sc3ccnc4c3CCC4)cn1)CC2` [Example 97]: the activity was half-maximal at 29.3 nM (AC50).

With `N[C@@H]1CCCC12CCN(c1cnc(Sc3cccc(Br)c3)cn1)CC2` [Example 82], the activity was half-maximal at 81.1 nM (AC50).

On to `N[C@@H]1CCCC12CCN(c1cnc(Sc3cccc(CO)c3)cn1)CC2` [Example 81], for which the AC50 amounted to 54.8 nM.

`N#Cc1cccc(Sc2cnc(N3CCC4(CCC[C@H]4N)CC3)cn2)c1` [Example 80] displayed an AC50 of 210 nM.

Compound `N[C@@H]1CCCC12CCN(c1cnc(Sc3cccc(C(F)(F)F)c3)cn1)CC2` [Example 85] came in with an AC50 of 52.8 nM.

On to `N[C@@H]1COCC12CCN(c1cnc(Sc3ccncc3Cl)cn1)CC2` [Example 23], for which the AC50 is 10.4 nM.

In turn, `C[C@@H]1OCC2(CCN(c3cnc(Sc4ccnc(N)c4Cl)cn3)CC2)[C@@H]1N` [Example 3, (3S,4S)-8-(5-((2-amino-3-chloropyridin-4-yl)thio)pyrazin-2-yl)-3-methyl-2-oxa-8-azaspiro[4.5]decan-4-amine] had a half-maximal activity concentration (AC50) of 7.9 nM.

Compound `CC(C)c1ccccc1Sc1cnc(N2CCC3(CCC[C@H]3N)CC2)cn1` [Example 63] showed an AC50 of 44.6 nM.

`CC1(CN)CCN(c2cnc(Sc3ccnc(N)c3Cl)cn2)CC1O` (single isomer, unassigned) [Example 51] gave an AC50 of 72.3 nM.

`N[C@@H]1COCC12CCN(c1cnc(Sc3ccnc(F)c3Cl)cn1)CC2` [Example 34] returned a half-maximal activity concentration (AC50) of 19.6 nM.

The compound `C[C@@H]1OCC2(CCN(c3cnc(Sc4ccnc(C(F)(F)F)c4)cn3)CC2)[C@@H]1N` [Example 122] displayed an AC50 of 18.5 nM.

`N[C@@H]1CCCC12CCN(c1cnc(Sc3cccc(Cl)c3Cl)cn1)CC2` [Example 107] gave an AC50 of 74 nM.

In turn, `CCC1(CN)CCN(c2cnc(Sc3ccnc(N)c3Cl)cn2)CC1` [Example 18] returned an AC50 of 8.2 nM.

As for `C[C@@H]1OCC2(CCN(c3cnc(Sc4cc[nH]c(=O)c4Cl)cn3)CC2)[C@@H]1N` [Example 109], the AC50 is 28.8 nM.

With `C[C@@H]1OCC2(CCN(c3cnc(Sc4ccnc(F)c4Cl)cn3)CC2)[C@@H]1N` [Example 111], half-maximal activity (AC50) was put at 44.1 nM.

For `Nc1nccc(Sc2cnc(N3CCC4(CC3)COC[C@H]4N)cn2)c1Cl` [Example 16], half-maximal activity (AC50) was put at 6.1 nM.

As for `N[C@@H]1CCCC12CCN(c1cnc(Sc3ccccc3)cn1)CC2` [Example 72], the AC50 is 64.6 nM.

Compound `N[C@@H]1CCCC12CCN(c1cnc(Sc3c(F)c(F)cc(F)c3F)cn1)CC2` [Example 101] came in with an AC50 of 2510 nM.

The compound `C[C@@H]1OCC2(CCN(c3cnc(Sc4cccc(CO)c4)cn3)CC2)[C@@H]1N` [Example 117] showed an AC50 of 45.1 nM.

In turn, `N[C@@H]1CCCC12CCN(c1cnc(Sc3cccc(F)c3Cl)cn1)CC2` [Example 92] showed an AC50 of 5.77 nM.

The compound `N[C@@H]1CCCC12CCN(c1cnc(Sc3cnnc(O)c3Cl)cn1)CC2` [Example 7, (R)-5-((5-(1-amino-8-azaspiro[4.5]decan-8-yl)pyrazin-2-yl)thio)-4-chloropyridazin-3-ol] gave an AC50 of 213 nM.

Compound `CC1(CN)CCN(c2cnc(Sc3ccnc(N)c3Cl)cn2)CC1O` (single isomer, unassigned) [Example 39] gave an AC50 of 28.2 nM.

`CC1(CN)CCN(c2cnc(Sc3ccnc(N)c3Cl)cn2)CC1O` (single isomer, unassigned) [Example 52] showed an AC50 of 791 nM.

Regarding `N[C@@H]1CCCC12CCN(c1cnc(Sc3cccc(Cl)c3F)cn1)CC2` [Example 93], half-maximal activity (AC50) was put at 89.3 nM.

Take `Nc1nccc(Sc2cnc(N3CCC4(CC3)COCCN4)cn2)c1Cl` [Example 53]: half-maximal activity (AC50) was put at 215 nM.

The compound `C[C@H]1OCC2(CCN(c3cnc(Sc4ccnc(N)c4Cl)cn3)CC2)[C@@H]1N` [Example 12] came in with an AC50 of 5.7 nM.

Turning to `N#Cc1c(Sc2cnc(N3CCC4(CCC[C@H]4N)CC3)cn2)ccnc1Cl` [Example 5, (R)-4-((5-(1-amino-8-azaspiro[4.5]decan-8-yl)pyrazin-2-yl)thio)-2-chloronicotinonitrile], the half-maximal activity concentration (AC50) turned out to be 67 nM.

Take `COC(=O)C1(CN)CCN(c2cnc(Sc3ccnc(N)c3Cl)cn2)CC1` [Example 44]: the AC50 amounted to 45.7 nM.

As to `CC1(N)CCN(c2cnc(Sc3cccc(N)c3Cl)cn2)CC1` [Example 36], the AC50 is 23.6 nM.

Compound `C[C@@H]1OCC2(CCN(c3cnc(Sc4ccnc(F)c4)cn3)CC2)[C@@H]1N` [Example 114] registered an AC50 of 120 nM.

For the compound `CC1(CN)CCN(c2cnc(Sc3ccc(N)cc3Cl)cn2)CC1` [Example 9, 4-((5-(4-(aminomethyl)-4-methylpiperidin-1-yl)pyrazin-2-yl)thio)-3-chloroaniline], the AC50 was found to be 30.6 nM.

The compound `C[C@@H]1OCC2(CCN(c3cnc(Sc4cc(N)nc(Cl)c4Cl)cn3)CC2)[C@@H]1N` [Example 28] registered an AC50 of 14.1 nM.

Regarding `CC1(N)CCN(c2cnc(Sc3cccnc3C(F)(F)F)cn2)CC1` [Example 6, 4-methyl-1-(5-((2-(trifluoromethyl)pyridin-3-yl)thio)pyrazin-2-yl)piperidin-4-amine], the AC50 stood at 127 nM.

The compound `Nc1cc(Sc2cnc(N3CCC4(CC3)C[C@H](F)C[C@H]4N)cn2)c(Cl)c(Cl)n1` [Example 61] returned an AC50 of 145 nM.

Compound `CC(C)(C)c1ccccc1Sc1cnc(N2CCC3(CCC[C@@H]3N)CC2)cn1` [Example 131] gave an AC50 of 1460 nM.

Take `N[C@@H]1CCCC12CCN(c1cnc(Sc3ccccc3F)cn1)CC2` [Example 70]: the AC50 was 30.4 nM.

For the compound `CC(C)c1ccccc1Sc1cnc(N2CCC3(CCC[C@@H]3N)CC2)cn1` [Example 124], the AC50 was 98 nM.

Regarding `N[C@@H]1CCCC12CCN(c1cnc(Sc3cccc(S(F)(F)(F)(F)F)c3)cn1)CC2` [Example 102], the AC50 was determined as 436 nM.

For the compound `N[C@@H]1CCCC12CCN(c1cnc(Sc3ccc(OC(F)(F)F)cc3)cn1)CC2` [Example 88], the concentration at half-maximal activity (AC50) is 82.3 nM.

Take `CC(=O)c1cccc(Sc2cnc(N3CCC4(CCC[C@H]4N)CC3)cn2)c1` [Example 119]: half-maximal activity (AC50) was put at 138 nM.

`N[C@@H]1CCCC12CCN(c1cnc(Sc3cccc(C4CC4)c3)cn1)CC2` [Example 84] had an AC50 of 33.9 nM.

`N[C@@H]1CCCC12CCN(c1cnc(Sc3ccc(F)cc3F)cn1)CC2` [Example 100] gave an AC50 of 151 nM.

`CCCC1(CN)CCN(c2cnc(Sc3ccnc(N)c3Cl)cn2)CC1` [Example 31] returned an AC50 of 17.6 nM.

In the case of `CC1CCC2(CCN(c3cnc(Sc4ccnc(N)c4Cl)cn3)CC2)[C@@H]1N` (stereo partly shown) [Example 13], half-maximal activity (AC50) was put at 5.9 nM.

In the case of `Nc1cc(Sc2cnc(N3CCC4(CC3)COC[C@H]4N)cn2)c(Cl)c(Cl)n1` [Example 24], the concentration at half-maximal activity (AC50) was determined as 10.4 nM.

Regarding `NC1=NC2(CCN(c3cnc(Sc4ccnc(Cl)c4Cl)cn3)CC2)CO1` [Example 4, 8-(5-((2,3-dichloropyridin-4-yl)thio)pyrazin-2-yl)-3-oxa-1,8-diazaspiro[4.5]dec-1-en-2-amine], the AC50 amounted to 17.4 nM.

In turn, `CO[C@@H]1C[C@@H](N)C2(CCN(c3cnc(Sc4ccnc(N)c4Cl)cn3)CC2)C1` [Example 43] registered an AC50 of 42.6 nM.

`CC(C)(C)c1ccccc1Sc1cnc(N2CCC3(CCC[C@H]3N)CC2)cn1` [Example 66] returned an AC50 of 1460 nM.

For the compound `CC1(CN)CCN(c2cnc(Sc3cc(N)nc(Cl)c3Cl)cn2)CC1` [Example 59], the activity was half-maximal at 155 nM (AC50).

The compound `CC(C)(C)c1ccc(Sc2cnc(N3CCC4(CCC[C@@H]4N)CC3)cn2)cc1` [Example 132] came in with an AC50 of 1960 nM.

On to `N[C@@H]1CCCC12CCN(c1cnc(Sc3ccc(Br)c(Cl)c3)cn1)CC2` [Example 91], for which the activity was half-maximal at 666 nM (AC50).
